Key:
[1] = molecular target: Beta-2 adrenergic receptor (Homo sapiens, UniProt P07550); assay: DRUGMATRIX: Adrenergic beta2 radioligand binding (ligand: [3H] CGP-12177); format: cell membranes, CHO, Membrane; settings: Not Active = under 50% inhibition at 10 µM
[2] = DRUGMATRIX: Atrial Natriuretic Factor (ANF) radioligand binding (ligand: [125I] ANF (rat)); format: cell membranes, Cavia porcellus, Dunkin-Hartley, Adrenal gland, Membrane; settings: Not Active = under 50% inhibition at 10 µM
[3] = molecular target: T1, Calcitonin receptor (Homo sapiens, UniProt P30988); format: cell membranes, Membrane; settings: t47d; note: in other assays of this panel Not Active means under 50% inhibition at 10 µM
T1 sequence (P30988 whole entry): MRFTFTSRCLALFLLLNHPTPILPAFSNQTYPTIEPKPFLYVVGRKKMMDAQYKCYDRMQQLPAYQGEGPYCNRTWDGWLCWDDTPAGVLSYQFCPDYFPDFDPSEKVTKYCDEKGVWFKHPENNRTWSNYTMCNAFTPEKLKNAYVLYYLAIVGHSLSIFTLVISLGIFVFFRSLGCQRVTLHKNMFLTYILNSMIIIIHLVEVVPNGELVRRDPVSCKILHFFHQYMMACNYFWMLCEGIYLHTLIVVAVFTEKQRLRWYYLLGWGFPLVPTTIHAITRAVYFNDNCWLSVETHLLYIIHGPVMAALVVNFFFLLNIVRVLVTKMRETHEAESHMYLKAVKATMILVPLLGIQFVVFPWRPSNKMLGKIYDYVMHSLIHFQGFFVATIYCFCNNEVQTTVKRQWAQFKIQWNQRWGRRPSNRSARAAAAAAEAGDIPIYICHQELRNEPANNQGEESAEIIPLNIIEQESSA

[4] = molecular target: Vasopressin V1a receptor (Homo sapiens, UniProt P37288); format: cell membranes, Membrane; settings: hek293; note: in other assays of this panel Not Active means under 50% inhibition at 10 µM
[5] = molecular target: Nitric oxide synthase 1 (Rattus norvegicus, UniProt P29476); format: tissue-based, Cerebellum; note: in other assays of this panel Not Active means under 50% inhibition at 10 µM
[6] = DRUGMATRIX: Phorbol Ester radioligand binding (ligand: [3H] PDBu); format: cell membranes, Mus musculus, ICR, Brain, Membrane; settings: Not Active = under 50% inhibition at 10 µM
[7] = molecular target: Mitogen-activated protein kinase 1 (Homo sapiens, UniProt P28482); assay: DRUGMATRIX: Protein Serine/Threonine Kinase, ERK2 enzyme inhibition (substrate: Myelin Basic Protein); set-up: species or system Escherichia coli; settings: Not Active = under 50% inhibition at 10 µM
[8] = molecular target: Acetylcholinesterase (Homo sapiens, UniProt P22303); assay: DRUGMATRIX: Acetylcholinesterase enzyme inhibition (substrate: acetylthiocholine); format: cell-based, HEK293; settings: hek293; Not Active = under 50% inhibition at 10 µM
Chain of Acetylcholinesterase (P22303 whole entry): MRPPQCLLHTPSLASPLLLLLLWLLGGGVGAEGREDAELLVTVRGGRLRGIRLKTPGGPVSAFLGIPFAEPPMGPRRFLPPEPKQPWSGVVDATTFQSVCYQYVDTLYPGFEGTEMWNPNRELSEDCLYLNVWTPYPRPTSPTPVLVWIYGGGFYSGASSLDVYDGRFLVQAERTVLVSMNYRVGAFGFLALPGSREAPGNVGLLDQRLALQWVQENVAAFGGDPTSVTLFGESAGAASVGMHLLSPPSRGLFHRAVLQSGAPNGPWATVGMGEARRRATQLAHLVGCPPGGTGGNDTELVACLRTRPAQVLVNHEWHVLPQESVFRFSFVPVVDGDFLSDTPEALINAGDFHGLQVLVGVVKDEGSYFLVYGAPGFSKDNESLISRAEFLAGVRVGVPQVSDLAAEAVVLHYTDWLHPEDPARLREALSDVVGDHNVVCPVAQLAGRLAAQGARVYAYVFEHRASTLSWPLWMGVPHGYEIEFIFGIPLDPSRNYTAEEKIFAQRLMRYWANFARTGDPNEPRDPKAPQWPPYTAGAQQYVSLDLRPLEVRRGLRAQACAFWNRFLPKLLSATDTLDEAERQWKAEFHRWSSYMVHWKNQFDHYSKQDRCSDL

Chain of Vasopressin V1a receptor (P37288 whole entry): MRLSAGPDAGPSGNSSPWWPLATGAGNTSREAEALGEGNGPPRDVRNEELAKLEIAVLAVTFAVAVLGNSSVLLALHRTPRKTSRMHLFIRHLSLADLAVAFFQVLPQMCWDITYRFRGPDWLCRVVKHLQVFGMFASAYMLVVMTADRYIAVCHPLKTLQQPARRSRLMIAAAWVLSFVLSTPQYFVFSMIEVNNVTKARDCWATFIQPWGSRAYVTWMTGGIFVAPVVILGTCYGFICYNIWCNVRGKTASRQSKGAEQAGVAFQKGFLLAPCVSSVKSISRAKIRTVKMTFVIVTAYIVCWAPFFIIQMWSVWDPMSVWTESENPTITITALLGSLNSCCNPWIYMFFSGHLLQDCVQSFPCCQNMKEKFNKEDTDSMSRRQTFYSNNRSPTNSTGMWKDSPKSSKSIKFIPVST
Chain of Nitric oxide synthase 1 (P29476 whole entry): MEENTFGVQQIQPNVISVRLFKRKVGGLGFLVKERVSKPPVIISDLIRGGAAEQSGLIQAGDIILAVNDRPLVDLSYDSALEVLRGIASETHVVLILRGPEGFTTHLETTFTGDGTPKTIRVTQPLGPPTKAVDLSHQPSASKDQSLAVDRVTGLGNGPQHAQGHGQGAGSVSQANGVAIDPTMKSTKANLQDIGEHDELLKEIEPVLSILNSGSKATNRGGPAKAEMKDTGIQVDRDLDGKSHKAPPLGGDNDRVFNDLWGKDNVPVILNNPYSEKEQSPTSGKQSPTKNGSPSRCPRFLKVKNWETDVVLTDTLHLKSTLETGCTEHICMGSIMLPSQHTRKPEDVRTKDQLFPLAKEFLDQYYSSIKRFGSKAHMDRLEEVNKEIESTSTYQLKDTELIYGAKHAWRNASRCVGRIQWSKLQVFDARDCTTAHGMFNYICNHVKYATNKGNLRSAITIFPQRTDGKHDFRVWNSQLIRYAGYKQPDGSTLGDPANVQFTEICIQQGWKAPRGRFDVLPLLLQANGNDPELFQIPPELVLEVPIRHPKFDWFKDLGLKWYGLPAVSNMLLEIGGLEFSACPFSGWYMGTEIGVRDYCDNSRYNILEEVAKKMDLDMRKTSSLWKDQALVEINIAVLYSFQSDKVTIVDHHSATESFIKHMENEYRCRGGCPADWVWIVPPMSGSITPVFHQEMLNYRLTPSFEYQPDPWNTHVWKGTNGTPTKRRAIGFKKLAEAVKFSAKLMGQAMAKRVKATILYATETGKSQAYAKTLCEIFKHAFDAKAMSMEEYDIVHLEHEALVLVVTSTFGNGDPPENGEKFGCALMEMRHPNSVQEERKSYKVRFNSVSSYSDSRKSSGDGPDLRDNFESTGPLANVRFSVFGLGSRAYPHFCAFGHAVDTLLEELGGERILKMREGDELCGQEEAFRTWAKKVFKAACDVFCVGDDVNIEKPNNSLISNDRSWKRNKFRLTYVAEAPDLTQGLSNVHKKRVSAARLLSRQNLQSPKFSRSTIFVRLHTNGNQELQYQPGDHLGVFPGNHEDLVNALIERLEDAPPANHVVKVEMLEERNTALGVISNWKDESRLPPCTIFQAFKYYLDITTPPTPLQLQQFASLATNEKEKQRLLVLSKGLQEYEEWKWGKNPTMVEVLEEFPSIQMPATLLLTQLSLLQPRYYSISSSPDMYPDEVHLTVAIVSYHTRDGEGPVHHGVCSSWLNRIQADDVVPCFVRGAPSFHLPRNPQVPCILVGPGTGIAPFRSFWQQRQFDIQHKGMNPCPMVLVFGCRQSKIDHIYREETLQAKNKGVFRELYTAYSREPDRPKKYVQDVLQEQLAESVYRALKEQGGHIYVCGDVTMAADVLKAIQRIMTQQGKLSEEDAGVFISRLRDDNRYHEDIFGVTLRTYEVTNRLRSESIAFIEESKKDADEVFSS
Chain of Mitogen-activated protein kinase 1 (P28482 whole entry): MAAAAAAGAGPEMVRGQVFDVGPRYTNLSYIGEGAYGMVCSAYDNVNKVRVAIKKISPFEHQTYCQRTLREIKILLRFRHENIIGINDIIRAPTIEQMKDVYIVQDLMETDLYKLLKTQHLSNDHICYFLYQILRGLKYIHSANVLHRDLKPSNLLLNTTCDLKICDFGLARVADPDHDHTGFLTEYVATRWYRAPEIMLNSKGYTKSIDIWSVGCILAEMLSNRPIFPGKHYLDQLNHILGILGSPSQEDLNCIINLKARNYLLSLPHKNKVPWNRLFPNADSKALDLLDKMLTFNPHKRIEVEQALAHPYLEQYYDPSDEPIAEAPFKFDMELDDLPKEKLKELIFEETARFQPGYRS

Compound | IC50 ([1]; read-out: IC50) [µM] | Ki ([1]; read-out: Ki) [µM] | IC50 [2] | Ki [2] | IC50 [3] | IC50 [4] | IC50 [5] | IC50 [6] | Ki [6] | IC50 [7] | IC50 [8] | IC50 ([1]; cho) | IC50 ([7]; read-out: IC50) [µM] | Ki ([1]; cho) | Ki [3] | Ki [4] | Ki [5] | Ki [7] | Ki [8]
C[C@@H]1C[C@H]2[C@@H]3CCC4=CC(=O)C=C[C@]4(C)C3=CC[C@]2(C)[C@H]1C(=O)CN1CCN(c2cc(N3CCCC3)nc(N3CCCC3)n2)CC1 [TIRILAZAD] | 22.7 | 15.6 | Not Active | Not Active | Not Active | Not Active | Not Active | Not Active | Not Active | Not Active | Not Active | – | – | – | – | – | – | – | –
NC[C@H]1O[C@H](O[C@H]2[C@H](O)[C@@H](O[C@H]3O[C@H](CO)[C@@H](O)[C@H](N)[C@H]3O)[C@H](N)C[C@@H]2N)[C@H](N)C[C@@H]1O [TOBRAMYCIN] | – | – | Not Active | Not Active | Not Active | Not Active | Not Active | Not Active | Not Active | Not Active | Not Active | Not Active | – | – | – | – | – | – | –
O=C(O)C(Cl)(Cl)Cl [TRICHLOROACETIC ACID] | – | – | Not Active | Not Active | Not Active | Not Active | Not Active | Not Active | Not Active | Not Active | Not Active | Not Active | – | – | – | – | – | – | –
COc1ccc(CN2CCNCC2)c(OC)c1OC [TRIMETAZIDINE] | – | – | Not Active | Not Active | Not Active | Not Active | Not Active | Not Active | Not Active | Not Active | Not Active | Not Active | – | – | – | – | – | – | –
CC(=O)O[C@H]1C[C@@H]2CC[C@@H]3[C@H](CC[C@@]4(C)[C@H]3C[C@H]([N+]3(C)CCCCC3)[C@@H]4OC(C)=O)[C@@]2(C)C[C@@H]1N1CCCCC1.[Br-] [VECURONIUM BROMIDE] | – | – | Not Active | Not Active | Not Active | Not Active | Not Active | Not Active | Not Active | Not Active | Not Active | Not Active | – | – | – | – | – | – | –
COc1cc(C(=O)NS(=O)(=O)c2ccccc2C)ccc1Cc1cn(C)c2ccc(NC(=O)OC3CCCC3)cc12 [ZAFIRLUKAST] | – | – | Not Active | Not Active | Not Active | Not Active | Not Active | Not Active | Not Active | – | Not Active | Not Active | 0.538 | – | – | – | – | – | –
Cc1cn([C@H]2C[C@H](N=[N+]=[N-])[C@@H](CO)O2)c(=O)[nH]c1=O [ZIDOVUDINE] | – | – | Not Active | Not Active | Not Active | Not Active | Not Active | Not Active | Not Active | Not Active | Not Active | Not Active | – | – | – | – | – | – | –
STANNOUS FLUORIDE | – | – | Not Active | Not Active | Not Active | Not Active | Not Active | Not Active | Not Active | Not Active | Not Active | Not Active | – | Not Active | Not Active | Not Active | Not Active | Not Active | Not Active
THIMEROSAL | – | – | Not Active | Not Active | Not Active | Not Active | Not Active | Not Active | Not Active | Not Active | Not Active | Not Active | – | Not Active | Not Active | Not Active | Not Active | Not Active | Not Active
